From patent publication US4255431A, “Gastric acid secretion inhibiting substituted 2-(2-benzimidazolyl)-pyridines, pharmaceutical preparations containing same, and method for inhibiting gastric acid secretion” (priority 1978, dated 1981)

System: gastric acid secretion
Test: Inhibition of pentagastrin-stimulated gastric acid secretion in conscious gastric fistula dogs (intraduodenal administration)
Type: in vivo
Conditions: Canis lupus familiaris, dose 0.5 μmol/kg, read-out: Effect, % inhibition (peak inhibitory effect on gastric acid secretion)
Description: To determine the gastric acid secretion inhibitory properties, experiments have been performed on conscious dogs provided with gastric fistulas of conventional type and duodenal fistulas, the latter ones used for direct intraduodenal administration of the test compounds. After 18 hours starvation and deprivation of water the dogs were given a subcutaneous infusion of pentagastrin (1-4 nmol/kg, h) lasting for 6-7 hours. Gastric juice was collected in consecutive 30 minutes samples. An aliquot of each sample was titrated with 0.1 N NaOH to pH 7.0 for titrable acid concentration using an automatic titrator and pH-meter (Radiometer, Copenhagen, Denmark). Acid output was calculated as mmol H^+ /60 minutes. The percent inhibition compared to control experiments was calculated for each compound and the peak inhibitory effect is given in Table 2 below. […] In the test prior known compounds were compared with the compounds of the present invention as will be evident from the Table 2 below. The following gastric acid inhibiting effect data were obtained for a number of compounds tested according to the method described.

| SMILES | inhibition in vivo at 0.5 µmol/kg [%] |
| --- | --- |
| COC(=O)c1ccc2[nH]c([S+]([O-])Cc3ncc(C)c(OC)c3C)nc2c1 (stereo not shown) [Example 20] | 65 |
| COC(=O)c1cc2nc([S+]([O-])Cc3nccc(OC)c3C)[nH]c2cc1C (stereo not shown) [Example 16] | 65 |
| COc1c(C)cnc(C[S+]([O-])c2nc3ccccc3[nH]2)c1C (stereo not shown) [Example 25] | 60 |
| COc1c(C)cnc(C[S+]([O-])c2nc3cc(C(C)=O)c(C)cc3[nH]2)c1C (stereo not shown) [Example 11] | 70 |
| COC(=O)c1ccc2[nH]c([S+]([O-])C(C)c3ncc(C)cc3C)nc2c1 (stereo not shown) [Example 29] | 40 |
| COc1ccc2[nH]c([S+]([O-])Cc3ncc(C)c(OC)c3C)nc2c1 (stereo not shown) [Example 23] | 65 |
| COc1c(C)cnc(C[S+]([O-])c2nc3cc(C(C)=O)ccc3[nH]2)c1C (stereo not shown) [Example 21] | 60 |
| COC(=O)c1cc2nc([S+]([O-])Cc3ncc(C)c(OC)c3C)[nH]c2cc1C (stereo not shown) [Example 17] | 90 |
| COc1c(C)cnc(C[S+]([O-])c2nc3cc(C)ccc3[nH]2)c1C (stereo not shown) [Example 24] | 50 |
| CCOC(=O)c1ccc2[nH]c([S+]([O-])Cc3ncc(C)c(OC)c3C)nc2c1 (stereo not shown) [Example 28] | 50 |
| COc1c(C)cnc(C[S+]([O-])c2nc3cc(Cl)ccc3[nH]2)c1C (stereo not shown) [Example 26] | 25 |
| COCCOc1ccnc(C[S+]([O-])c2nc3cc(C)ccc3[nH]2)c1 (stereo not shown) [Example 27] | 30 |

Same assay, conditions: Canis lupus familiaris, dose 1 μmol/kg, read-out: Effect, % inhibition (peak inhibitory effect on gastric acid secretion)

| SMILES | inhibition in vivo at 1 µmol/kg [%] |
| --- | --- |
| CC(=O)c1cc2nc([S+]([O-])Cc3nccc(C)c3C)[nH]c2cc1C (stereo not shown) [Example 4] | 60 |

Same assay, conditions: Canis lupus familiaris, dose 2 μmol/kg, read-out: Effect, % inhibition (peak inhibitory effect on gastric acid secretion)

| SMILES | inhibition in vivo at 2 µmol/kg [%] |
| --- | --- |
| COC(=O)c1ccc2[nH]c([S+]([O-])Cc3ncc(C)cc3C)nc2c1 (stereo not shown) [Example 19] | 60 |
| COc1ccnc(C[S+]([O-])c2nc3cc(C(C)=O)c(C)cc3[nH]2)c1 (stereo not shown) [Example 9] | 95 |
| COc1ccnc(C[S+]([O-])c2nc3c(C)cc(C)cc3[nH]2)c1 (stereo not shown) [Example 10] | 40 |
| COC(=O)c1cc2nc([S+]([O-])Cc3cc(OC)ccn3)[nH]c2cc1C (stereo not shown) [Example 14] | 100 |
| COC(=O)c1cc2nc([S+]([O-])Cc3ncc(C)cc3C)[nH]c2cc1C (stereo not shown) [Example 12] | 70 |
| CC(=O)c1cc2nc([S+]([O-])Cc3ncc(C)cc3C)[nH]c2cc1C (stereo not shown) [Example 7, 2-[2-(3,5-dimethyl)pyridylmethylsulfinyl]-(5-acetyl-6-methyl)benzimidazole] | 100 |
| COC(=O)c1cc2nc([S+]([O-])Cc3cc(C)c(C)cn3)[nH]c2cc1C (stereo not shown) [Example 2] | 60 |
| COC(=O)c1cc2nc([S+]([O-])Cc3nccc(C)c3C)[nH]c2cc1C (stereo not shown) [Example 5] | 90 |
| CC(=O)c1cc2nc([S+]([O-])Cc3cc(C)c(C)cn3)[nH]c2cc1C (stereo not shown) [Example 1, 2-[2-(4,5-di-methyl)pyridylmethylsulfinyl]-(5-acetyl-6-methyl)benzimidazole] | 90 |

Same assay, conditions: Canis lupus familiaris, dose 4 μmol/kg, read-out: Effect, % inhibition (peak inhibitory effect on gastric acid secretion)

| SMILES | inhibition in vivo at 4 µmol/kg [%] |
| --- | --- |
| COC(=O)c1cc2nc([S+]([O-])Cc3ncc(C)c(C)c3C)[nH]c2cc1C (stereo not shown) [Example 13] | 80 |
| Cc1cnc(C[S+]([O-])c2nc3c(C)cc(C)cc3[nH]2)c(C)c1 (stereo not shown) [Example 6] | 40 |
| COC(=O)c1ccc2[nH]c([S+]([O-])Cc3cc(C)c(C)cn3)nc2c1 (stereo not shown) [Example 3] | 100 |
| CC(=O)c1cc2nc([S+]([O-])Cc3ncc(C)c(C)c3C)[nH]c2cc1C (stereo not shown) [Example 8] | 100 |
| COC(=O)c1cc2nc([S+]([O-])Cc3ncccc3Br)[nH]c2cc1C (stereo not shown) [* 5-COOCH3,6-CH3, H, Br, H, H, reference compound] | 0 |
| CCOc1ccnc(C[S+]([O-])c2nc3cc(C(=O)OC)c(C)cc3[nH]2)c1 (stereo not shown) [Example 15] | 75 |
| COC(=O)c1cc2nc([S+]([O-])Cc3ccc(C)cn3)[nH]c2cc1C (stereo not shown) [* 5-COOCH3,6-CH3, H, H, H, CH3, reference compound] | 50 |
| Cc1ccc(C[S+]([O-])c2nc3cc(C)ccc3[nH]2)nc1 (stereo not shown) [* 5-CH3, H, H, H, H, CH3, reference compound] | 50 |

Same assay, conditions: Canis lupus familiaris, dose 8 μmol/kg, read-out: Effect, % inhibition (peak inhibitory effect on gastric acid secretion)

| SMILES | inhibition in vivo at 8 µmol/kg [%] |
| --- | --- |
| CC(=O)c1cc2nc([S+]([O-])Cc3ccc(C)cn3)[nH]c2cc1C (stereo not shown) [* 5-COCH3,6-CH3, H, H, H, CH3, reference compound] | 80 |

Same assay, conditions: Canis lupus familiaris, dose 12 μmol/kg, read-out: Effect, % inhibition (peak inhibitory effect on gastric acid secretion)

| SMILES | inhibition in vivo at 12 µmol/kg [%] |
| --- | --- |
| Cc1ccc(C[S+]([O-])c2nc3c(C)cc(C)cc3[nH]2)nc1 (stereo not shown) [* 4-CH3,6-CH3, H, H, H, CH3, reference compound] | 50 |

Same assay, conditions: Canis lupus familiaris, dose 20 μmol/kg, read-out: Effect, % inhibition (peak inhibitory effect on gastric acid secretion)

| SMILES | inhibition in vivo at 20 µmol/kg [%] |
| --- | --- |
| COC(=O)c1ccc2[nH]c([S+]([O-])Cc3ccc(C)cn3)nc2c1 (stereo not shown) [* 5-COOCH3, H, H, H, H, CH3, reference compound] | 90 |
| COC(=O)c1ccc2[nH]c([S+]([O-])Cc3ccccn3)nc2c1 (stereo not shown) [* 5-COOCH3, H, H, H, H, H, reference compound] | 50 |
| CC(=O)c1cc2nc([S+]([O-])Cc3cc(C)ccn3)[nH]c2cc1C (stereo not shown) [* 5-COCH3,6-CH3, H, H, CH3, H, reference compound] | 30 |
| COc1ccc2[nH]c([S+]([O-])Cc3cc(C)ccn3)nc2c1 (stereo not shown) [* 5-OCH3, H, H, H, CH3, H, reference compound] | 10 |
| CCc1ccc(C[S+]([O-])c2nc3cc(C(C)=O)ccc3[nH]2)nc1 (stereo not shown) [* 5-COCH3, H, H, H, H, C2 H5, reference compound] | 40 |
